Laboratory results published in DBAASP.
In brackets after ≈: the same amount, converted by molar mass. One block for each compound: values may come before it.

Columns and labels:
Experiment in all cases: ≥ marks a high value that may be exact or a test limit, other limits are often not marked, values filed in µg/mL are converted to µM
[1] = tested on: Staphylococcus epidermidis AB208187
[2] = tested on: Staphylococcus aureus P1374
[3] = tested on: Escherichia coli ATCC 25922
[4] = tested on: Staphylococcus aureus P1381
[5] = tested on: Staphylococcus aureus P1389
[6] = tested on: Micrococcus luteus AB93113
[7] = tested on: Bacillus subtilis AB91021
[8] = tested on: Staphylococcus aureus ATCC 6538
[9] = tested on: Staphylococcus epidermidis AB208188
[10] = tested on: Pseudomonas aeruginosa ATCC 9027
[11] = tested on: Staphylococcus aureus AB208193
[12] = tested on: Staphylococcus aureus ATCC 25923
Escherichia coli AB94012 = tested on: Escherichia coli AB94012
[13] = tested on: Bacillus thuringiensis AB92037
[14] = tested on: Staphylococcus aureus NBRC 13276
[15] = tested on: Pseudomonas aeruginosa NBRC 13275
[16] = tested on: Escherichia coli DH5alpha
[17] = tested on: Salmonella enterica subsp. enterica serovar Abony NCTC 6017
[18] = tested on: Pseudomonas aeruginosa ATCC 27853
[19] = tested on: Klebsiella pneumoniae ATCC 700603
Escherichia coli ML-35p = tested on: Escherichia coli ML-35p
[20] = tested on: Staphylococcus aureus ATCC 33592
[21] = tested on: Salmonella enterica subsp. enterica serovar Typhimurium ATCC 14028
[22] = tested on: Micrococcus luteus MTCC 166
[23] = tested on: Salmonella enterica subsp. enterica serovar Typhi Vi+
[24] = tested on: Klebsiella pneumoniae ATCC 13883
[25] = tested on: Escherichia coli ATCC 11775
[26] = tested on: Staphylococcus saprophyticus MTCC 6155
[27] = tested on: Staphylococcus epidermidis MTCC 435
[28] = tested on: Bacillus subtilis MTCC 121
[29] = tested on: Escherichia coli ATCC 35218
[30] = tested on: Staphylococcus aureus ATCC 43300
[31] = tested on: Staphylococcus aureus ATCC 29213
[32] = tested on: Bacillus cereus ATCC 11778
[33] = tested on: Listeria monocytogenes ATCC BAA-751
[34] = tested on: Staphylococcus aureus NCTC 8325-4
[35] = tested on: Staphylococcus aureus SA113
Escherichia coli O111 = tested on: Escherichia coli O111
[36] = tested on: Staphylococcus aureus RF122
[37] = tested on: Cronobacter sakazakii DPC 6440
Escherichia coli O157:H7 = tested on: Escherichia coli O157:H7
[38] = tested on: Staphylococcus aureus NCTC 7428
[39] = tested on: Salmonella enterica subsp. enterica serovar Typhimurium LT2
[40] = tested on: Staphylococcus aureus RN4220
[41] = tested on: Salmonella enterica subsp. enterica serovar Typhimurium DT104
[42] = tested on: Klebsiella pneumoniae NCIMB 13218
[43] = tested on: Pseudomonas fluorescens NCIMB 9046
[44] = tested on: Cronobacter sakazakii ATCC BAA-894
[45] = tested on: Staphylococcus aureus Newman
[46] = tested on: Escherichia coli NCIMB 11843
[47] = tested on: Cronobacter sakazakii DSM 4485
[48] = tested on: Cronobacter muytjensii ATCC 51329

MIC [1]: 1.5 µM (≈ 3.1 µg/mL)
MIC [2]: 3 µM (≈ 6.21 µg/mL)
MIC [3]: 12.1 µM (≈ 25 µg/mL)
MIC [4]: 3 µM (≈ 6.21 µg/mL)
MIC [5]: 1.5 µM (≈ 3.1 µg/mL)
MIC [6]: ≥ 48.3 µM
MIC [7]: 3 µM (≈ 6.21 µg/mL)
MIC [8]: 1.5 µM (≈ 3.1 µg/mL)
MIC [9]: 1.5 µM (≈ 3.1 µg/mL)
MIC [10]: 12.1 µM (≈ 25 µg/mL)
MIC [11]: 3 µM (≈ 6.21 µg/mL)
MIC [12]: 3 µM (≈ 6.21 µg/mL)
MIC (Escherichia coli AB94012): ≥ 48.3 µM
MIC [13]: 1.5 µM (≈ 3.1 µg/mL)
Structure (SMILES): CC[C@H](C)[C@H](NC(=O)[C@H](CCCCN)NC(=O)[C@@H](NC(=O)[C@H](C)NC(=O)[C@H](CC(C)C)NC(=O)[C@H](CCCCN)NC(=O)[C@H](Cc1ccccc1)NC(=O)[C@H](CC(C)C)NC(=O)[C@H](C)NC(=O)CNC(=O)[C@H](Cc1ccccc1)NC(=O)[C@@H](N)Cc1ccccc1)[C@@H](C)O)C(=O)N[C@H](C(=O)N1CCC[C@H]1C(=O)N[C@@H](CO)C(=O)N[C@@H](CC(C)C)C(=O)N[C@@H](Cc1ccccc1)C(=O)N[C@@H](CCCN=C(N)N)C(=O)O)[C@@H](C)CC [FFGALFKLATKIIPSLFR]

MIC [14]: ≥ 400 µM
MIC [15]: ≥ 200 µM
MIC [16]: ≥ 200 µM
Structure (SMILES): CC(=O)N[C@@H](CCCCN)C(=O)N[C@@H](Cc1ccccc1)C(=O)N[C@@H](CC(C)C)C(=O)N[C@@H](Cc1cnc[nH]1)C(=O)N[C@@H](CO)C(=O)N[C@@H](C)C(=O)N[C@@H](CCCCN)C(=O)N[C@@H](CCCCN)C(=O)N[C@@H](Cc1ccccc1)C(N)=O [KFLHSAKKF]

MIC [17]: 7 µM (≈ 13 µg/mL)
MIC [18]: 4 µM (≈ 7.41 µg/mL)
MIC [19]: 5 µM (≈ 9.26 µg/mL)
MIC (Escherichia coli ML-35p): 4 µM (≈ 7.41 µg/mL)
MIC [20]: 3 µM (≈ 5.56 µg/mL)
MIC [21]: 7 µM (≈ 13 µg/mL)
MIC [22]: 2.5 µM (≈ 4.63 µg/mL)
MIC [23]: 2 µM (≈ 3.7 µg/mL)
MIC [24]: 3 µM (≈ 5.56 µg/mL)
MIC [25]: 4 µM (≈ 7.41 µg/mL)
MIC [26]: 3 µM (≈ 5.56 µg/mL)
MIC [27]: 4 µM (≈ 7.41 µg/mL)
MIC [28]: 3 µM (≈ 5.56 µg/mL)
MIC [29]: 5 µM (≈ 9.26 µg/mL)
Structure (SMILES): CC[C@H](C)[C@H](N)C(=O)N[C@@H](CC(C)C)C(=O)N1CCC[C@H]1C(=O)N[C@@H](Cc1c[nH]c2ccccc12)C(=O)N[C@@H](CCCCN)C(=O)N[C@@H](Cc1c[nH]c2ccccc12)C(=O)N[C@@H](CCCCN)C(=O)N[C@@H](Cc1c[nH]c2ccccc12)C(=O)N[C@H](C(=O)N1CCC[C@H]1C(=O)N[C@@H](Cc1c[nH]c2ccccc12)C(=O)N[C@@H](CCCN=C(N)N)C(=O)N[C@@H](CCCN=C(N)N)C(N)=O)[C@@H](C)O [ILPWKWKWTPWRR]

MIC [3]: 62.5 µM (≈ 148 µg/mL)
MIC [30]: 250 µM (≈ 592 µg/mL)
MIC [21]: 125 µM (≈ 296 µg/mL)
MIC [10]: 250 µM (≈ 592 µg/mL)
MIC [31]: 250 µM (≈ 592 µg/mL)
MIC [32]: ≥ 125 µM
MIC [12]: 62.5 µM (≈ 148 µg/mL)
MIC [33]: ≥ 62.5 µM
Structure (SMILES): CC[C@H](C)[C@H](NC(=O)CNC(=O)[C@H](CCCCN)NC(=O)[C@@H](NC(=O)[C@H](CC(C)C)NC(=O)[C@H](CCCCN)NC(=O)CNC(=O)[C@H](CC(C)C)NC(=O)CNC(=O)[C@H](CO)NC(=O)[C@H](CCCCN)NC(=O)[C@H](Cc1ccccc1)NC(=O)[C@@H](NC(=O)[C@H](CCCN=C(N)N)NC(=O)[C@H](CCCCN)NC(=O)[C@H](CC(C)C)NC(=O)CN)[C@@H](C)CC)C(C)C)C(=O)N[C@@H](CO)C(=O)N[C@@H](C)C(=O)N[C@@H](Cc1cnc[nH]1)C(=O)N[C@H](C(=O)N[C@@H](C)C(=O)N[C@@H](CO)C(=O)O)C(C)C [GLKRIFKSGLGKLVKGISAHVAS]

MIC [34]: ≥ 1250 µM
MIC [35]: ≥ 1250 µM
MIC (Escherichia coli O111): ≥ 2060 µM
MIC [36]: ≥ 1250 µM
MIC [18]: 64 µM (≈ 62.1 µg/mL)
MIC [37]: ≥ 1250 µM
MIC (Escherichia coli O157:H7): ≥ 2060 µM
MIC [38]: ≥ 2060 µM
MIC [39]: ≥ 1250 µM
MIC [40]: ≥ 1250 µM
MIC [41]: ≥ 2060 µM
MIC [42]: ≥ 1250 µM
MIC [43]: ≥ 1250 µM
MIC [44]: ≥ 625 µM
MIC [45]: ≥ 1250 µM
MIC [46]: ≥ 1250 µM
MIC [47]: ≥ 625 µM
MIC [48]: ≥ 625 µM
Structure (SMILES): CC(C)C[C@H](NC(=O)[C@H](CC(C)C)NC(=O)[C@H](CC(N)=O)NC(=O)[C@H](CCC(=O)O)NC(=O)[C@H](CC(N)=O)NC(=O)[C@H](CC(C)C)NC(=O)[C@@H](N)C(C)C)C(=O)N[C@@H](CCCN=C(N)N)C(=O)O [VLNENLLR]
